The nature of the series: Viability of cultured chondrosarcoma cells (crystal violet nuclear staining, OD590). Format: cell-based. To be noted: human, human chondrosarcoma cell line; crystal violet OD590 (FIG. 5); concentration not given; read-out: decrease in viable cell number. As to the method:
Animal Cell Experiments. The effects of the MMP-2 propeptide on viability and metabolism of cultured animal cells was observed. A human chondrosarcoma cell line was cultured in both the presence and absence of 50 μg/ml recombinant MMP-2 propeptide (serum-free). Cultures were observed over a 48 hours period. Cell viability was monitored via crystal violet nuclear staining and absorption spectroscopy (OD590). Absorbance is proportional to cell number (Gillies, 1986, Anal. Biochem. 159:109-113). […] That MMP-2 had no effect on the cultured cancer cell line was not unexpected since the effects of angiogenesis inhibitors (such as angiostatin and endostatin) are believed to be restricted to […] endothelial cells.

`COc1cc2c(cc1O)CCN[C@]21CS[C@@H]2c3c(OC(C)=O)c(C)c4c(c3[C@H](COC1=O)N1[C@@H]2[C@H]2c3c(cc(C)c(OC)c3O)C[C@@H]([C@@H]1O)N2C)OCO4` [ET-743]: the cytotoxicity at 48 h was determined as 50%.

The values above are taken from patent US20020151481A1, “MMP-2 propeptide for use as antiangiogenic or antitumor agent” (priority 2000, published 2002).
